Tests used:
Type in all cases: binding
[1] = molecular target: T1, GCN5 (Homo sapiens, UniProt Q92830); test: Thermal shift assay, GCN5
T1 construct: purchased in-house (SGC bromodomain thermal shift / AlphaScreen panel)
Experimental: (§1) II.VII Thermal Shift Assay[6]
(§2) Thermal melting experiments were carried out using an Mx3005p Real Time PCR machine (Stratagene). Proteins were buffered in 10 mM HEPES pH 7.5, 500 mM NaCl and assayed in a 96-well plate at a final concentration of 2 μM in 20 μL volume. Compounds were added at a final concentration of 50 μM. SYPRO Orange (Molecular Probes) was added as a fluorescence probe at a dilution of 1:1000. Excitation and emission filters for the SYPRO-Orange dye were set to 465 nm and 590 nm, respectively. The temperature was raised with a step of 3 °C per minute from 25 °C to 96 °C and fluorescence readings were taken at each interval. The unfolding curves were fitted using the Boltzmann equation to determine the middle point of the transition.

[2] = molecular target: T2, MLL (Homo sapiens, UniProt Q03164); test: Thermal shift assay, MLL
T2 construct: purchased in-house (SGC bromodomain thermal shift / AlphaScreen panel)

[3] = molecular target: FALZ (Homo sapiens, UniProt Q12830); test: Thermal shift assay, FALZ; parameters: purchased in-house (SGC bromodomain thermal shift / AlphaScreen panel)
Experimental: as §1, §2

[4] = molecular target: T3, ATAD2A (Homo sapiens, UniProt Q6PL18); test: Thermal shift assay, ATAD2A
T3 construct: purchased in-house (SGC bromodomain thermal shift / AlphaScreen panel)
T3 sequence (Q6PL18 1-1390): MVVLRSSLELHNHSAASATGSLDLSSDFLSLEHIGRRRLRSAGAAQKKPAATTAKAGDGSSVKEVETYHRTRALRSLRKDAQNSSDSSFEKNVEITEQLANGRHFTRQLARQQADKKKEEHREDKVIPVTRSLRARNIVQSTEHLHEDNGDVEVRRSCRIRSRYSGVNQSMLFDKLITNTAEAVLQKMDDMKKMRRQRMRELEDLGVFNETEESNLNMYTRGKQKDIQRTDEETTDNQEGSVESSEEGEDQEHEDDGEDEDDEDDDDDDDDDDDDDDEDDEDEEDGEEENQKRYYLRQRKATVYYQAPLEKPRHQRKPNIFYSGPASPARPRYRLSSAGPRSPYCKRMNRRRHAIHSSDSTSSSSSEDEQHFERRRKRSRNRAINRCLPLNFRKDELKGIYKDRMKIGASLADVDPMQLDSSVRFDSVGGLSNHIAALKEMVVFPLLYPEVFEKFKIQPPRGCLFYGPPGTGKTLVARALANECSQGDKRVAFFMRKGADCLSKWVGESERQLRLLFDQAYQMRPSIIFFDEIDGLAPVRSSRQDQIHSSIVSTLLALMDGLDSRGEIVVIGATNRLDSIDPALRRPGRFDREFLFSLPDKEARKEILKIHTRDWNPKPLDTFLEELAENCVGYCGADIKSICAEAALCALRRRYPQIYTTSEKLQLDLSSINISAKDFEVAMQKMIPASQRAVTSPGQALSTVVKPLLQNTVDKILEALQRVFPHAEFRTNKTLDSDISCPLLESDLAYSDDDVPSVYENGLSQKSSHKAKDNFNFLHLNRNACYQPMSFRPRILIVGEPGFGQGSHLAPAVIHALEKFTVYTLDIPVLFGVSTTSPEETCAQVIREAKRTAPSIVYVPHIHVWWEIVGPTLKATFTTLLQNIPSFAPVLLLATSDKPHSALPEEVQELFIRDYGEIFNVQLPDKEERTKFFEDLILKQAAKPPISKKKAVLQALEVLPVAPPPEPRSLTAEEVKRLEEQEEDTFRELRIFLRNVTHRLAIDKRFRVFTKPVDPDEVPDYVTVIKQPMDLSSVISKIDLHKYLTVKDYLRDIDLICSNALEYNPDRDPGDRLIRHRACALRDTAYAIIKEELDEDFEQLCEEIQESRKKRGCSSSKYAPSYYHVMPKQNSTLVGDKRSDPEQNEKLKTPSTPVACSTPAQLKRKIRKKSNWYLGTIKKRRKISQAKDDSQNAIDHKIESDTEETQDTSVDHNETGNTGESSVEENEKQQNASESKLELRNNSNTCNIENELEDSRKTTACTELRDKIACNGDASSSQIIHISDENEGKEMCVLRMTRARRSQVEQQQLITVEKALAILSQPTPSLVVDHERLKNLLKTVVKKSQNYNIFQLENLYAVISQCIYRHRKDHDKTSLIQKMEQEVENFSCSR
Experimental: as §1, §2

[5] = molecular target: T4, BRD8 (Homo sapiens, UniProt Q9H0E9); test: Thermal shift assay, BRD8
T4 construct: purchased in-house (SGC bromodomain thermal shift / AlphaScreen panel)
Experimental: as §1, §2

[6] = molecular target: T5, PB1(6) (Homo sapiens, UniProt Q86U86); test: Thermal shift assay, PB1(6)
T5 construct: PB1(6); purchased in-house (SGC bromodomain thermal shift / AlphaScreen panel)
Experimental: as §1, §2

[7] = molecular target: T6, ASH1L (Homo sapiens, UniProt Q9NR48); test: Thermal shift assay, ASH1L
T6 construct: purchased in-house (SGC bromodomain thermal shift / AlphaScreen panel)
Experimental: as §1, §2

[8] = molecular target: T7, BRD9 (Homo sapiens, UniProt Q9H8M2); test: Thermal shift assay, BRD9
T7 construct: purchased in-house (SGC bromodomain thermal shift / AlphaScreen panel)
T7 sequence (Q9H8M2 1-597): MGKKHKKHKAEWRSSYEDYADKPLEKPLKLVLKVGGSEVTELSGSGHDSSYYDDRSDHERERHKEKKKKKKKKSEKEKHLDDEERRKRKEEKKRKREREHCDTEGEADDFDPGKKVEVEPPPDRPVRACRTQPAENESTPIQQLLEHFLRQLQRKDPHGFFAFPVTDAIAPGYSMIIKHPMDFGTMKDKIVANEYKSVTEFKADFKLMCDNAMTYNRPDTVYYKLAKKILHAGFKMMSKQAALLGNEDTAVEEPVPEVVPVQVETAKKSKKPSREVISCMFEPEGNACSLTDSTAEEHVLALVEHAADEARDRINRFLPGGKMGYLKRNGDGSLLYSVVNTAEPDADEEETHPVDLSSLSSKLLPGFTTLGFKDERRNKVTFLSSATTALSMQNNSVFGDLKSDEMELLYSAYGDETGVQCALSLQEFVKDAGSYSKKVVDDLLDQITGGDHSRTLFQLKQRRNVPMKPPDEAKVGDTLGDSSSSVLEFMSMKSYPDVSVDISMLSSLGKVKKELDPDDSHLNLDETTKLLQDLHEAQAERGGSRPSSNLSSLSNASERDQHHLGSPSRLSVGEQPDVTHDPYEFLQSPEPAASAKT
Experimental: as §1, §2

T4 sequence (Q9H0E9 whole entry): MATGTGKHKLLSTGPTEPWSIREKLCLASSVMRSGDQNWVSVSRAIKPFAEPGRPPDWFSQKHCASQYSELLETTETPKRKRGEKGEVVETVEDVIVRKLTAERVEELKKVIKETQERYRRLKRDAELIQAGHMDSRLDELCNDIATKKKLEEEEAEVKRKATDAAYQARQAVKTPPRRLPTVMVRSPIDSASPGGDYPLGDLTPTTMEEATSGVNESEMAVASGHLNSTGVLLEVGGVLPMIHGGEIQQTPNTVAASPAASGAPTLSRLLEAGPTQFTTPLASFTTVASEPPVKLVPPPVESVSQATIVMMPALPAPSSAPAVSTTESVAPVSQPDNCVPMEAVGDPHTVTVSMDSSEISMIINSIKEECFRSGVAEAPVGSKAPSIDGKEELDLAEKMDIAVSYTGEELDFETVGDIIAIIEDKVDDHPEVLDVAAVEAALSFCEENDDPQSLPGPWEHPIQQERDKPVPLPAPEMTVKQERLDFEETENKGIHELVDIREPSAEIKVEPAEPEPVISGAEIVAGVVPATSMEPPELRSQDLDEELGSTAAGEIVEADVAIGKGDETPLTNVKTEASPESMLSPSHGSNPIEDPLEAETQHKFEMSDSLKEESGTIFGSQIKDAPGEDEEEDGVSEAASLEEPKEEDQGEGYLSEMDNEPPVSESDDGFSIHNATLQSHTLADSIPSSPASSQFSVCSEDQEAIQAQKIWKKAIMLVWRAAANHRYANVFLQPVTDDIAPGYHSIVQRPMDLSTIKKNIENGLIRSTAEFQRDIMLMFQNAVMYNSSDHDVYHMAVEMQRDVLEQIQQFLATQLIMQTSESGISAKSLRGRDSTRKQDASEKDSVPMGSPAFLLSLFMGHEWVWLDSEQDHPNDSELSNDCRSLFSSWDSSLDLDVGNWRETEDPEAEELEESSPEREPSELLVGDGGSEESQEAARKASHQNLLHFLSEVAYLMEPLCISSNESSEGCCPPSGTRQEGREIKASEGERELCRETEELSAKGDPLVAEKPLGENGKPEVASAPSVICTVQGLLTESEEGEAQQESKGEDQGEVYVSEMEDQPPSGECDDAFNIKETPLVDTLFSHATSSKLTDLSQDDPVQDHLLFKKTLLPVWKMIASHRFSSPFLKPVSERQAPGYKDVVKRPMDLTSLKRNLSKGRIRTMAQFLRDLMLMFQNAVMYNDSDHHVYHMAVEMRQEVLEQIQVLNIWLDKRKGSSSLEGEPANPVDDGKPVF
T5 sequence (Q86U86 773-914 limits assumed): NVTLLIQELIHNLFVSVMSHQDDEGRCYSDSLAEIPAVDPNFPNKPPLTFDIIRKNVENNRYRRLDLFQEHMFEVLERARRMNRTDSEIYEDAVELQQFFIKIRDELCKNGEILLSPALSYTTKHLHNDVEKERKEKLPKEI
T1 sequence (Q92830 whole entry): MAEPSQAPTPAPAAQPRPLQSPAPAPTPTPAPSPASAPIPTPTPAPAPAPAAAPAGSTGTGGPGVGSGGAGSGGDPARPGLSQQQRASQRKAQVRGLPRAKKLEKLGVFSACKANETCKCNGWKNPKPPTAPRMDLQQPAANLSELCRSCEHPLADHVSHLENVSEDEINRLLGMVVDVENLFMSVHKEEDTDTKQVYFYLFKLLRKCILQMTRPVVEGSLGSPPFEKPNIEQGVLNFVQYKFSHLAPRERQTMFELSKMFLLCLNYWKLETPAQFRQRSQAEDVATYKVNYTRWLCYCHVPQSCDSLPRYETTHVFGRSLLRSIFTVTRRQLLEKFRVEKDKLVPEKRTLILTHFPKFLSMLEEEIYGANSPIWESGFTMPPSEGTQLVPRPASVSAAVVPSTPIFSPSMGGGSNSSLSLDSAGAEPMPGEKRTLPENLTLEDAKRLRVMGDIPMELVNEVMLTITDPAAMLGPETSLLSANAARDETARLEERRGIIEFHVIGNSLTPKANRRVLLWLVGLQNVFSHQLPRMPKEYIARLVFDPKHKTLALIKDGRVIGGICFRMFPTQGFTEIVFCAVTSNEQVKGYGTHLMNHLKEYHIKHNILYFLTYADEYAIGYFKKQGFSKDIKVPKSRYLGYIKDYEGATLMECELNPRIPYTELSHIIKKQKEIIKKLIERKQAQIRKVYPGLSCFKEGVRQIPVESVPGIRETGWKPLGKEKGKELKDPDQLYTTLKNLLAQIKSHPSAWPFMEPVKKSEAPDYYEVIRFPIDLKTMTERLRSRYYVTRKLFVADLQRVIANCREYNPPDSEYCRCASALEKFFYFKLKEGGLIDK

Thermal stabilisation, GCN5 ([1]; 10 µM compound concentration) | Thermal stabilisation, MLL ([2]; 10 µM compound concentration) | Thermal stabilisation, FALZ ([3]; 10 µM compound concentration) | Thermal stabilisation, ATAD2A ([4]; 10 µM compound concentration) | Thermal stabilisation, BRD8 ([5]; 10 µM compound concentration) | Thermal stabilisation, PB1(6) ([6]; 10 µM compound concentration) | Thermal stabilisation, ASH1L ([7]; 10 µM compound concentration) | Thermal stabilisation, BRD9 ([8]; 10 µM compound concentration) | SMILES | Thermal stabilisation, GCN5 ([1]; 50 μM compound) | Thermal stabilisation, MLL ([2]; 50 μM compound) | Thermal stabilisation, FALZ ([3]; 50 μM compound) | Thermal stabilisation, ATAD2A ([4]; 50 μM compound) | Thermal stabilisation, BRD8 ([5]; 50 μM compound) | Thermal stabilisation, PB1(6) ([6]; 50 μM compound) | Thermal stabilisation, ASH1L ([7]; 50 μM compound) | Thermal stabilisation, BRD9 ([8]; 50 μM compound)
0.925 | 0.75 | 1.5 | 0.67 | 0.74 | 0.82 | 0.51 | 7.145 | CCOC(=O)Nc1cc(-c2ccc(C)c(NS(C)(=O)=O)c2)nn2c(C)nnc12 [Bromosporine, reference compound] |  |  |  |  |  |  |  | 
 |  |  |  |  |  |  |  | COC(=O)c1ccc(C(=O)Nc2ccc3[nH]c(CN4CCCCC4)nc3c2)cc1 [Compound 1] | 0.145 | -0.18 | 0.235 | 0.54 | -1.225 | 0.17 | 0.32 | -0.915
 |  |  |  |  |  |  |  | C[C@H]1CCCN1Cc1nc2cc(NC(=O)c3ccc4c(cnn4C)c3)ccc2[nH]1 [Compound 92] | -0.225 | -1.31 | -0.315 | 0.56 | -0.715 | -0.365 | -0.305 | -1.445

Reference: article PMC6348381, “Discovery of an MLLT1/3 YEATS Domain Chemical Probe” (Angewandte Chemie (International Ed. in English), 2018)
